Data on 12 compounds can be found in ChEMBL document CHEMBL1201862, “PubChem BioAssay data set” (2004).

Among the test systems are SW-620; HCT-15; MCF7; NCI-H23; LOX IMVI; OVCAR-4; MDA-MB-231; TK-10; NCI/ADR-RES; CAKI-1; HOP-62; COLO 205; OVCAR-8; SF-295; K562; M14; UACC-62; EKVX; RXF 393.
Common to all, as to assay: NCI anticancer screen, dose series, 48 h

Each structure is given as a SMILES string.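 Five compound concentrations were applied to cells in 96-well plates for 48 hours; endpoints were derived by simple linear interpolation of the resulting dose-response curve. Abbreviation: GI50, concentration required for 50% inhibition of growth.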 Activity calls are given as the source filed them. No stated cut-off is given here; in the data, active = GI50 up to about 1.1 µM and inactive = higher.

In the case of `COP(=O)(O)C(N)Cc1c[nH]c2ccccc12` (stereo not drawn), the GI50 with SW-620 is > 100 µM (inactive); with HCT-15 it was greater than 100 µM; with MCF7, > 100 µM (inactive); in the assay with NCI-H23, > 100 µM (inactive); in the assay on LOX IMVI it was > 100 µM (inactive); in the assay on OVCAR-4, > 100 µM (inactive). Besides, the GI50 in the assay on MDA-MB-231, in the assay with TK-10, in the assay on NCI/ADR-RES, in the assay on CAKI-1, in the assay on HOP-62 and in the assay with COLO 205 was > 100 µM (inactive) in each case. The GI50 in the assay on OVCAR-8, in the assay with SF-295, in the assay on K562 and with M14 was > 100 µM (inactive) in each case.

In the case of `CC(=O)C1(c2ccccc2)CCCN(C)CC1` (stereo not drawn), the GI50 in the assay on SW-620 is > 100 µM (inactive); in the assay on HCT-15 it was greater than 100 µM; in the assay on MCF7, > 100 µM (inactive); with NCI-H23, > 100 µM (inactive); with LOX IMVI, > 100 µM (inactive); with OVCAR-4 it was > 100 µM (inactive). For the same compound, the GI50 in the assay with MDA-MB-231, in the assay with TK-10, in the assay on NCI/ADR-RES, in the assay with CAKI-1, in the assay with HOP-62 and in the assay on UACC-62 was > 100 µM (inactive) each time. Further, the GI50 in the assay on COLO 205, with OVCAR-8, in the assay with SF-295 and in the assay with M14 was > 100 µM (inactive) throughout.

Regarding `CC1=NC(C)(C)[N+]([O-])=C1`, the GI50 was > 10 µM (inactive) in the assay with SW-620; greater than 10 µM with HCT-15; > 10 µM (inactive) in the assay on MCF7; > 10 µM (inactive) in the assay on NCI-H23; > 10 µM (inactive) in the assay with EKVX; > 10 µM (inactive) with LOX IMVI. Further, the GI50 in the assay with RXF 393, in the assay on MDA-MB-231, in the assay on TK-10, with NCI/ADR-RES, in the assay with CAKI-1 and in the assay with HOP-62 was > 10 µM (inactive) throughout. Also, the GI50 in the assay with UACC-62, with COLO 205, in the assay on OVCAR-8, in the assay with SF-295, with K562 and in the assay on M14 was > 10 µM (inactive) in each case.

Regarding `CSc1n[n+](C)cc(N)c1N`, the GI50 in the assay with SW-620 is > 100 µM (inactive); in the assay on HCT-15, greater than 100 µM; in the assay on MCF7 it was > 100 µM (inactive); with NCI-H23 it was > 100 µM (inactive); with EKVX it was > 100 µM (inactive); with LOX IMVI it was > 100 µM (inactive). Besides, the GI50 in the assay with OVCAR-4, in the assay with MDA-MB-231, in the assay on TK-10, with NCI/ADR-RES, with CAKI-1 and with HOP-62 was > 100 µM (inactive) in each case. Besides, the GI50 is > 100 µM (inactive) with UACC-62; > 100 µM (inactive) in the assay with COLO 205; > 100 µM (inactive) in the assay with OVCAR-8; > 100 µM (inactive) in the assay with SF-295; 39 µM (inactive) in the assay on K562; > 100 µM (inactive) in the assay with M14.

On to `S=C1N(c2ccc(Cl)cc2)C2=C(/N=N/c3ccccc3)C(=Nc3ccccc3S2)N1c1ccccn1`, for which the GI50 in the assay with SW-620 was 16.4 µM (inactive); with HCT-15 it was 10.2 µM; in the assay on MCF7, 0.167 µM (active); in the assay with NCI-H23, 15 µM (inactive); in the assay on EKVX, 12.2 µM (inactive); in the assay on LOX IMVI it was 10.4 µM (inactive). In addition, the GI50 was 12.8 µM (inactive) in the assay on MDA-MB-231; 14.8 µM (inactive) in the assay with TK-10; 15.5 µM (inactive) in the assay on NCI/ADR-RES; 13.8 µM (inactive) in the assay on CAKI-1; 19.4 µM (inactive) in the assay with HOP-62; 12.6 µM (inactive) with COLO 205. Besides, the values for the GI50 in the assay on OVCAR-8, in the assay with SF-295 and in the assay with M14 were 14.5 µM (inactive), 15.7 µM (inactive) and 13.7 µM (inactive), respectively.

Regarding `O=C(CC(=O)N1N=C(N2CCCCC2)CC1c1ccccc1)Nc1ccc(Cl)cc1` (stereo not drawn), the GI50 with SW-620 was > 100 µM (inactive); in the assay on HCT-15, greater than 100 µM; in the assay on MCF7, > 100 µM (inactive); in the assay on NCI-H23 it was > 100 µM (inactive); in the assay on EKVX, > 100 µM (inactive); in the assay with LOX IMVI, > 100 µM (inactive). Besides, the GI50 in the assay with OVCAR-4, in the assay with MDA-MB-231, in the assay on TK-10, in the assay with NCI/ADR-RES, with CAKI-1 and in the assay on HOP-62 was > 100 µM (inactive) each time. Moreover, the GI50 in the assay with UACC-62, with COLO 205, with OVCAR-8, with SF-295 and with M14 was > 100 µM (inactive) throughout.

Take `C=C1[C@@](C)([C@@H]2CCCS2)[C@H]2C(C)=C[C@]1(C)n1c(=O)n(-c3ccccc3)c(=O)n12`: the GI50 is > 100 µM (inactive) in the assay with SW-620; greater than 100 µM in the assay with HCT-15; > 100 µM (inactive) with MCF7; > 100 µM (inactive) in the assay on NCI-H23; > 100 µM (inactive) in the assay with EKVX; > 100 µM (inactive) with OVCAR-4. Moreover, the GI50 in the assay with MDA-MB-231, with TK-10, in the assay on NCI/ADR-RES, with CAKI-1, in the assay with HOP-62 and in the assay on UACC-62 was > 100 µM (inactive) throughout. For the same compound, the GI50 with COLO 205, with SF-295 and with M14 was > 100 µM (inactive) in each case.

For the compound `Cc1sc2nc(-c3cccc([N+](=O)[O-])c3)c(/C=N/N=C(N)N)n2c1C`, the GI50 with SW-620 is 1.75 µM (inactive); with HCT-15, 1.67 µM; with MCF7 it was 1.84 µM (inactive); in the assay on NCI-H23, 1.82 µM (inactive); with EKVX, 1.67 µM (inactive); in the assay with LOX IMVI, 1.77 µM (inactive). The GI50 in the assay with RXF 393 was 1.66 µM (inactive); in the assay on MDA-MB-231, 1.75 µM (inactive); in the assay on TK-10, 1.51 µM (inactive); with NCI/ADR-RES, 8.13 µM (inactive); in the assay on CAKI-1, 1.82 µM (inactive); in the assay on HOP-62, 1.72 µM (inactive). For the same compound, the GI50 is 1.75 µM (inactive) with UACC-62; 1.83 µM (inactive) in the assay on COLO 205; 1.84 µM (inactive) in the assay with OVCAR-8; 1.54 µM (inactive) in the assay on SF-295; 1.69 µM (inactive) in the assay with K562; 1.6 µM (inactive) with M14.

Take `OC1CN2CCS[C@H]2C(O)C1O` (stereo partly drawn): the GI50 in the assay with SW-620 was > 100 µM (inactive); in the assay on HCT-15, greater than 100 µM; with NCI-H23, > 100 µM (inactive); in the assay with EKVX it was > 100 µM (inactive); in the assay with LOX IMVI, > 100 µM (inactive); in the assay on OVCAR-4, > 100 µM (inactive). Moreover, the GI50 with RXF 393, in the assay on MDA-MB-231, in the assay with TK-10, with NCI/ADR-RES, in the assay on CAKI-1 and with HOP-62 was > 100 µM (inactive) throughout. Besides, the GI50 in the assay on UACC-62, in the assay with COLO 205, with OVCAR-8, in the assay on SF-295, with K562 and in the assay with M14 was > 100 µM (inactive) each time.

Turning to `COc1ccc2c(c1)/C(=C\c1c(Cl)[nH]c3ccccc13)C(=O)N2`, the GI50 is 3.4 µM (inactive) with SW-620; 5.14 µM with HCT-15; 3.58 µM (inactive) in the assay with MCF7; 11.4 µM (inactive) in the assay with NCI-H23; 3.3 µM (inactive) with EKVX; 5.09 µM (inactive) in the assay on LOX IMVI. Also, the GI50 is 2.88 µM (inactive) in the assay on RXF 393; 4.47 µM (inactive) in the assay with MDA-MB-231; 6.9 µM (inactive) in the assay with TK-10; 2.81 µM (inactive) in the assay with NCI/ADR-RES; 3.86 µM (inactive) with CAKI-1; 5.75 µM (inactive) with HOP-62. In addition, the GI50 in the assay on UACC-62 is 5.16 µM (inactive); in the assay with COLO 205, 2.27 µM (inactive); with OVCAR-8 it was 11.1 µM (inactive); in the assay on SF-295 it was 1.97 µM (inactive); in the assay with K562, 3.62 µM (inactive); in the assay with M14, 4.08 µM (inactive).

`CCC(C#N)NCc1cccc(CNC(C#N)CC)c1` (stereo not drawn): the GI50 in the assay on SW-620 is > 100 µM (inactive); in the assay on HCT-15, greater than 100 µM; with MCF7, > 100 µM (inactive); in the assay on NCI-H23, > 100 µM (inactive); in the assay on EKVX it was > 100 µM (inactive); in the assay with LOX IMVI it was > 100 µM (inactive). Besides, the GI50 with OVCAR-4, in the assay with MDA-MB-231, in the assay on TK-10, in the assay on NCI/ADR-RES, with CAKI-1 and with UACC-62 was > 100 µM (inactive) each time. Moreover, the GI50 was > 100 µM (inactive) with COLO 205; > 100 µM (inactive) in the assay on OVCAR-8; 19.5 µM (inactive) in the assay on SF-295; > 100 µM (inactive) in the assay on K562; 17.6 µM (inactive) in the assay on M14.

With `CCOc1ccc2nc(-c3ccc(O)cc3)sc2c1`, the GI50 in the assay with SW-620 was > 100 µM (inactive); with HCT-15, 97.3 µM; in the assay with MCF7, > 100 µM (inactive); in the assay with NCI-H23, 23.5 µM (inactive); with EKVX it was 10.3 µM (inactive); with LOX IMVI, > 100 µM (inactive). Besides, the GI50 in the assay with RXF 393 is 37 µM (inactive); in the assay on MDA-MB-231, > 100 µM (inactive); in the assay on TK-10 it was 73.1 µM (inactive); in the assay with NCI/ADR-RES, > 100 µM (inactive); in the assay with CAKI-1 it was 36.7 µM (inactive); in the assay with UACC-62, 56.9 µM (inactive). The GI50 was > 100 µM (inactive) in the assay with COLO 205; 48.6 µM (inactive) in the assay with OVCAR-8; 20.1 µM (inactive) with SF-295; > 100 µM (inactive) in the assay on K562; > 100 µM (inactive) with M14.
